Results reported in the NIST ThermoML archive (doi:10.1016/j.jct.2008.02.002).
Several values for one entry are separate records, joined by “and”; a condition that tells them apart may be missing. Equal entries are not always repeated. Numbers after ± are expanded uncertainties.

Conditions: Liquid, Transpiration method

SMILES: CC1CCC(=O)O1 (stereo unspecified) [γ-valerolactone]
- vapor or sublimation pressure (275.8 K): 0.00748 ± 0.00041 kPa
- vapor or sublimation pressure (282 K): 0.0128 ± 0.00068 kPa
- vapor or sublimation pressure (288 K): 0.02076 ± 0.0011 kPa
- vapor or sublimation pressure (292.8 K): 0.02954 ± 0.0017 kPa
- vapor or sublimation pressure (293.4 K): 0.03202 ± 0.0018 kPa
- vapor or sublimation pressure (298.6 K): 0.04438 ± 0.0023 kPa
- vapor or sublimation pressure (300.7 K): 0.05548 ± 0.0029 kPa
- vapor or sublimation pressure (302.7 K): 0.06032 ± 0.0032 kPa
- vapor or sublimation pressure (306.6 K): 0.08358 ± 0.0043 kPa
- vapor or sublimation pressure (309 K): 0.09563 ± 0.005 kPa
- vapor or sublimation pressure (312.9 K): 0.1265 ± 0.0065 kPa
- vapor or sublimation pressure (317.3 K): 0.1599 ± 0.0082 kPa
- vapor or sublimation pressure (322.3 K): 0.2195 ± 0.011 kPa
- vapor or sublimation pressure (326.9 K): 0.2912 ± 0.015 kPa
- vapor or sublimation pressure (332.4 K): 0.3929 ± 0.02 kPa
- vapor or sublimation pressure (333.9 K): 0.4475 ± 0.023 kPa
- vapor or sublimation pressure (337.3 K): 0.5167 ± 0.026 kPa
- vapor or sublimation pressure (338.8 K): 0.58 ± 0.03 kPa
- vapor or sublimation pressure (342.6 K): 0.7011 ± 0.036 kPa
- vapor or sublimation pressure (343.8 K): 0.759 ± 0.039 kPa
- vapor or sublimation pressure (347.5 K): 0.9099 ± 0.046 kPa
- vapor or sublimation pressure (349.7 K): 1.033 ± 0.053 kPa

SMILES: CCC1CCC(=O)O1 (stereo unspecified) [2(3H)-furanone, 5-ethyldihydro-]
- vapor or sublimation pressure (283.3 K): 0.00612 ± 0.00032 kPa
- vapor or sublimation pressure (284.1 K): 0.00643 ± 0.00034 kPa
- vapor or sublimation pressure (285.3 K): 0.00733 ± 0.00041 kPa
- vapor or sublimation pressure (288.2 K): 0.00998 ± 0.00053 kPa
- vapor or sublimation pressure (290.2 K): 0.01151 ± 0.00061 kPa
- vapor or sublimation pressure (293.2 K): 0.01468 ± 0.00076 kPa
- vapor or sublimation pressure (295.3 K): 0.0168 ± 0.00088 kPa
- vapor or sublimation pressure (298.2 K): 0.02155 ± 0.0011 kPa
- vapor or sublimation pressure (300.2 K): 0.0271 ± 0.0014 kPa
- vapor or sublimation pressure (303.2 K): 0.0324 ± 0.0017 kPa
- vapor or sublimation pressure (305.2 K): 0.0372 ± 0.0019 kPa
- vapor or sublimation pressure (308.1 K): 0.04647 ± 0.0024 kPa
- vapor or sublimation pressure (310.1 K): 0.05153 ± 0.0027 kPa
- vapor or sublimation pressure (313.2 K): 0.06502 ± 0.0033 kPa
- vapor or sublimation pressure (315.1 K): 0.06992 ± 0.0036 kPa
- vapor or sublimation pressure (318.2 K): 0.08725 ± 0.0046 kPa
- vapor or sublimation pressure (323.2 K): 0.1267 ± 0.0066 kPa
- vapor or sublimation pressure (328.2 K): 0.1719 ± 0.0088 kPa
- vapor or sublimation pressure (333.2 K): 0.2306 ± 0.012 kPa
- vapor or sublimation pressure (338.2 K): 0.3093 ± 0.016 kPa
- vapor or sublimation pressure (343.1 K): 0.4065 ± 0.021 kPa
- vapor or sublimation pressure (348.2 K): 0.5374 ± 0.027 kPa
- vapor or sublimation pressure (350.9 K): 0.6238 ± 0.032 kPa
- vapor or sublimation pressure (353.3 K): 0.6982 ± 0.035 kPa

SMILES: CCCCCCC1CCC(=O)O1 (stereo unspecified) [γ-decalactone]
- vapor or sublimation pressure (298.4 K): 0.00035 ± 2e-05 kPa
- vapor or sublimation pressure (303.3 K): 0.00056 ± 3e-05 kPa
- vapor or sublimation pressure (308.2 K): 0.00088 ± 5e-05 kPa
- vapor or sublimation pressure (313.1 K): 0.00146 ± 7e-05 kPa
- vapor or sublimation pressure (313.4 K): 0.00144 ± 7e-05 kPa
- vapor or sublimation pressure (318.2 K): 0.00214 ± 0.00011 kPa and 0.00233 ± 0.00012 kPa
- vapor or sublimation pressure (322.9 K): 0.00339 ± 0.00017 kPa
- vapor or sublimation pressure (323.2 K): 0.00345 ± 0.00018 kPa
- vapor or sublimation pressure (328.1 K): 0.00532 ± 0.00028 kPa
- vapor or sublimation pressure (328.2 K): 0.00523 ± 0.00028 kPa
- vapor or sublimation pressure (333 K): 0.00765 ± 0.0004 kPa
- vapor or sublimation pressure (333.2 K): 0.00791 ± 0.00041 kPa
- vapor or sublimation pressure (338.1 K): 0.0114 ± 0.00059 kPa
- vapor or sublimation pressure (338.7 K): 0.01181 ± 0.00061 kPa
- vapor or sublimation pressure (343.2 K): 0.01646 ± 0.00087 kPa
- vapor or sublimation pressure (343.9 K): 0.01747 ± 0.00092 kPa
- vapor or sublimation pressure (348.2 K): 0.02361 ± 0.0012 kPa
- vapor or sublimation pressure (349.4 K): 0.02507 ± 0.0013 kPa
- vapor or sublimation pressure (353.3 K): 0.03379 ± 0.0017 kPa
- vapor or sublimation pressure (354.8 K): 0.03595 ± 0.0019 kPa
- vapor or sublimation pressure (360.3 K): 0.05404 ± 0.0028 kPa
- vapor or sublimation pressure (365 K): 0.07279 ± 0.0037 kPa

SMILES: CCCC1CCC(=O)O1 (stereo unspecified) [2(3H)-furanone, dihydro-5-propyl-]
- vapor or sublimation pressure (298.1 K): 0.00729 ± 0.00039 kPa
- vapor or sublimation pressure (302.8 K): 0.01081 ± 0.00057 kPa
- vapor or sublimation pressure (308 K): 0.01613 ± 0.00085 kPa
- vapor or sublimation pressure (313.1 K): 0.02435 ± 0.0013 kPa
- vapor or sublimation pressure (318 K): 0.03459 ± 0.0018 kPa
- vapor or sublimation pressure (323.1 K): 0.05178 ± 0.0027 kPa
- vapor or sublimation pressure (328.1 K): 0.07127 ± 0.0037 kPa
- vapor or sublimation pressure (333 K): 0.09289 ± 0.0048 kPa
- vapor or sublimation pressure (338.2 K): 0.1344 ± 0.007 kPa
- vapor or sublimation pressure (343.2 K): 0.1842 ± 0.0095 kPa
- vapor or sublimation pressure (348.2 K): 0.2432 ± 0.012 kPa
- vapor or sublimation pressure (353.2 K): 0.3239 ± 0.017 kPa
- vapor or sublimation pressure (358.4 K): 0.4408 ± 0.023 kPa
- vapor or sublimation pressure (363.2 K): 0.572 ± 0.029 kPa

SMILES: CCCCCC1CCC(=O)O1 (stereo unspecified) [2(3H)-furanone, dihydro-5-pentyl-]
- vapor or sublimation pressure (296.2 K): 0.00085 ± 5e-05 kPa
- vapor or sublimation pressure (300 K): 0.00123 ± 7e-05 kPa
- vapor or sublimation pressure (306 K): 0.00211 ± 0.00011 kPa
- vapor or sublimation pressure (313.1 K): 0.00391 ± 0.0002 kPa
- vapor or sublimation pressure (318.1 K): 0.00574 ± 0.0003 kPa
- vapor or sublimation pressure (323.2 K): 0.0088 ± 0.00046 kPa
- vapor or sublimation pressure (328.2 K): 0.01277 ± 0.00067 kPa
- vapor or sublimation pressure (333.1 K): 0.01835 ± 0.00095 kPa
- vapor or sublimation pressure (338 K): 0.02514 ± 0.0013 kPa
- vapor or sublimation pressure (342.8 K): 0.03648 ± 0.0019 kPa
- vapor or sublimation pressure (348.4 K): 0.05463 ± 0.0028 kPa
- vapor or sublimation pressure (353.2 K): 0.07252 ± 0.0038 kPa
- vapor or sublimation pressure (358.1 K): 0.1037 ± 0.0053 kPa
- vapor or sublimation pressure (363.4 K): 0.1375 ± 0.007 kPa
